Assay results as given in patent US6413773B1, “Phosphatidylinositol 3-kinase inhibitors as stimulators of endocrine differentiation” (The Regents of the University of California, priority 1998, dated 2002).

Experiments:
PI3K [1] = assay: PI3K assay on immunoprecipitates from treated fetal ICCs; assay type: cell-based, human; settings: for control PI3K activity eliminated, p85 immunoprecipitates: 100 nM wortmannin or 10 μM Ly294002, 5 d
Text: (§1) The use of human fetal tissue for these studies was reviewed and approved by the Institutional Review Board at our university. Human fetal pancreases at 18-24 gestational wk were obtained with appropriate permissions and patient consent through nonprofit organ procurement programs (Advanced Bioscience Resources, Oakland, Calif.; Anatomic Gift Foundation, Laurel, Md.). Experiments were started by the enzymatic digestion with collagenase P (Boehringer Mannheim Corp., Indianapolis, Ind.) of the human fetal pancreases followed by tissue culture for 5 d, which led to the formation in vitro of ICCs, as previously described in detail (Otonkoski et al. (1993) J. Clin. Invest. 92:1459-1466).
PI3K inhibitors, NIC, or HGF/SF were added to the culture medium from the very beginning. Medium plus factor was changed every day for 5 d. For direct comparison, portions of the same pancreases were grown, treated with factors, and used for transcriptional analyses, insulin content and secretion, PI3K activities, and DNA synthesis.
(§2) Aliquots of cell lysates normalized for protein content were incubated for 3 h with antiPI3K antibodies directed against the 85kD regulatory subunit or with antiphosphotyrosine antibodies (Upstate Biotechnology, Inc., Lake Placid, N.Y.). The immune complexes were absorbed onto protein A-Sepharose and washed as described (Ptasznik et al. (1995) J. Biol. Chem. 270:19969-19973). PI3K assays were performed directly on beads. Briefly, the reaction was carried out for 10 min in a buffer containing 40 mM Hepes, pH 7.2, 6 mM MgCl2, 1 mM EDTA, […] (Avanti Polar Lipids, Alabaster, Ala.), […], and 10 mCi [γ^32P]ATP (6,000 Ci/mmol; DuPont/NEN, Wilmington, Del.). Adenosine (0.2 mM) was added to the reaction mixture to inhibit residual PI 4 kinase activity. After the incubation, the reaction was stopped with methanol plus 2.4 N HCl (1:1, vol/vol), and lipids were extracted, analyzed by thin-layer chromatography, and quantified as described previously (Ptasznik et al. (1995) J. Biol. Chem. 270:19969-19973). In some experiments, the direct binding of PI3K to p190Met after HGF/SF stimulation of islet cells was determined, as previously described in detail (Graziani, et al. (1991) J. Biol. Chem. 266:22087-22090).

[2] = tissue culture medium; cited from earlier work
[3] = tested on: fetal pancreatic cells growing as islet-like cell clusters; assay: Cytotoxicity and apoptosis in culture
PIP3 = assay: Determination of total cellular PIP3 in [32P]orthophosphate-labeled ICCs; assay type: cell-based, human
Procedure: The ICCs, which were pretreated for 5 d with PI3K inhibitors, NIC, HGF/SF, or control buffer, were subsequently harvested and suspended at a concentration of 2 3 10 5 cells/ml in buffer A (30 mM Hepes, pH 7.2, 110 mM NaCl, 10 mM KCl, 1 mM MgCl2, 10 mM glucose), and 1 mCi/ml [^32P]orthophosphate ([…]; DuPont/NEN) was added. The cells were incubated at 37° C. for 2 h and then washed 3× with buffer A. Depending on the type of experiment, the labeled islet cells were either directly lysed by addition of 3 ml chloroform/methanol (1:2, vol/vol), followed by 4 ml chloroform/2.4 M HCl (1: 1, vol/vol) (to measure basal levels of PIP3 ), or labeled cells were first stimulated with 25 ng/ml HGF/SF for the indicated times, and subsequently the reaction was stopped as above (to measure the inducible levels of PIP3 ). Phospholipids were extracted and analyzed by thinlayer chromatography, and the total cellular PIP3 was quantified, as we described previously in detail (Ptasznik et al. (1996) J. Biol. Chem. 271 :25204-25207).

PI3K [4] = assay: Direct effect on PI3K activity in vitro in p85 immunoprecipitates; assay type: biochemical, human; settings: various concentrations of NIC
Procedure: as §2

purified fetal islets = assay: Endocrine function in purified fetal islets; assay type: cell-based, human
Procedure: Effects of PI3K inhibitors on endocrine function were tested not only in ICCs, but also in purified islets. Undifferentiated epithelial cells account for z75-80% of the total cell mass in ICCs. By contrast, purified fetal islets contain about 10 fold fewer undifferentiated epithelial cells (Beattie et al. (1996) Diabetes. 46:244-248). Purification of human fetal pancreatic islets was performed as recently described (Beattie et al. (1996) Diabetes. 46:244-248). Fetal islets, identified as homogeneous differentiated clusters of dithizonepositive cells, were incubated with factors as above.

p85 protein = assay: Western blotting of p85 protein; assay type: cell-based, human; settings: during NIC treatment
[5] = tested on: islet hormone gene expression in human fetal ICCs; settings: earlier publications; cited from earlier work
human fetal ICCs [6] = assay: Insulin content and insulin release of ICCs; assay type: cell-based
Text: as §1, with “92:1459-1466). […] After incubation with various factors in culture, the ICCs were harvested, and measurements of insulin content, insulin release in response to glucose plus theophylline, and [^3H]thymidine incorporation into DNA were performed as described previously (Otonkoski et al. (1993) J. Clin. Invest. 92:1459-1466).” for “92:1459-1466).”

[7] = tested on: islet hormone gene expression in human fetal ICCs; assay: Multiprobe ribonuclease protection assay of islet hormone mRNA; assay type: cell-based; settings: ICCs 5 d, 100 nM wortmannin or 10 μM Ly294002, FIG. 1
Text: The use of human fetal tissue for these studies was reviewed and approved by the Institutional Review Board at our university. Human fetal pancreases at 18-24 gestational wk were obtained with appropriate permissions and patient consent through nonprofit organ procurement programs (Advanced Bioscience Resources, Oakland, Calif.; Anatomic Gift Foundation, Laurel, Md.). Experiments were started by the enzymatic digestion with collagenase P (Boehringer Mannheim Corp., Indianapolis, Ind.) of the human fetal pancreases followed by tissue culture for 5 d, which led to the formation in vitro of ICCs, as previously described in detail (Otonkoski et al. (1993) J. Clin. Invest. 92:1459-1466). […] Transcriptional analyses on total RNA ([…]) were performed using a multiprobe ribonuclease protection assay, as previously described (Otonkoski et al. (1993) J. Clin. Invest. 92:1459-1466). The housekeeping gene cyclophilin was used as an internal control, and yeast tRNA (10 μM) was included as a negative control. Probes used were of human origin and were described previously (Otonkoski et al. (1993) J. Clin. Invest. 92:1459-1466). Target RNAs were quantitated in autoradiographs by scanning densitometry (LKB UltroScan XL Laser) and integrated using Gel Scan XL software (Pharmacia LKB Biotechnology, Inc., Piscataway, N.J.). The probe-specific mRNA signals were normalized to the cyclophilin signal in each sample to account for differences in sample loading between lanes.

human fetal ICCs [8] = assay: [3H]thymidine incorporation into DNA; assay type: cell-based; settings: ICCs 5 d with inhibitor, FIG. 4A
Procedure: After incubation with various factors in culture, the ICCs were harvested, and measurements of insulin content, insulin release in response to glucose plus theophylline, and [^3H]thymidine incorporation into DNA were performed as described previously (Otonkoski et al. (1993) J. Clin. Invest. 92:1459-1466).

human fetal ICCs [9] = assay: Triple immunofluorescence, confocal microscopy and morphometric analysis; assay type: cell-based
Procedure: ICCs cultured for 5 d in either control medium or medium containing 10 μM Ly 294002 were paraffin embedded, and […] sections were stained for hormone immunoreactivity. To simultaneously identify cells producing insulin, glucagon, somatostatin, and pancreatic polypeptide (pp), we followed a modification of our previous protocol for multiple labeling (Otonkoski et al. (1996) J. Clin. Invest. 79:351-358). Briefly, sections were incubated for 1 h at room temperature with a mixture of primary antibodies: IgG fraction of a sheep anti-human insulin antiserum (The Binding Site, Birmingham, England) ([…]), mouse monoclonal anti-human glucagon (Sigma Chemical Co.) (1 mg/ml), rabbit anti-human somatostatin antiserum (Dako Corporation, Carpinteria, Calif.) (used at 1:100 dilution), and rabbit anti-human pp antiserum (Chemicon International, Inc., Temecula, Calif.) (used at 1:100 dilution). In separate sections, a mixture of normal sheep, rabbit, and mouse IgGs was used as control reference for specificity of primary antibodies. After washings in PBSDS (5 mM glycine, 0.2% donkey serum, 0.1% BSA), sections were incubated for 1 h at room temperature with a cocktail of F(ab′)2 fractions from secondary antibodies: lissamine-rhodamine-conjugated affinity-purified donkey anti-sheep IgGs ([…]); FITC-conjugated affinity-purified donkey anti-rabbit IgGs ([…]); and indodicarbocyanine-conjugated affinity-purified donkey anti-mouse IgGs ([…]). All F(ab′)2 were preadsorbed on appropriate multiple species to eliminate the possibility of crossreactivity in multiple labeling protocols (Jackson ImmunoResearch Labs, Inc., West Grove, Pa.). The sections were processed as previously described (Otonkoski et al. (1996) J. Clin. Invest. 79:351-358) and viewed on a laser scanning confocal microscope (model MRC1024; BioRad Laboratories, Hercules, Calif.).
Sections were prepared from control and Ly294002 treated ICCs from three independent experiments. […] All images collected (one image per section) were then analyzed for total surface area and insulin, glucagon, somatostatin, and positive cell surface area by using measurement tools in the software NIH Image 1.60 (National Institutes of Health, Bethesda, Md.). Data were analyzed in Stat View 4.01 (Abacus Concepts, Inc., Berkeley, Calif.) for calculation of mean, standard deviation, and parametric statistic (t test).

COC[C@H]1OC(=O)c2coc3c2[C@@]1(C)C1=C(C3=O)[C@@H]2CCC(=O)[C@@]2(C)C[C@H]1OC(C)=O [wortmannin]
control PI3K activity eliminated, p85 immunoprecipitates (PI3K [1]; FIG. 7): 90%
stability in culture medium [2]: much less stable
cytotoxicity and apoptosis ([3]; continuous treatment 5 d, 100 nM wortmannin, 10 μM Ly294002): does not cause notable cytotoxity nor induce apoptosis

NC(=O)c1cccnc1 [NIC, nicotinamide]
amount of PI3K activity in p85 immunoprecipitates, lower than untreated cells (PI3K [1]; 10 mM NIC, 5 d, FIG. 7): about fivefold
inducibility of cellular PI3K activity by growth factors and de novo formation of PIP3 (PI3K [1]; NIC-treated cells): significantly reduced
basal level of PIP3 versus control cells (PIP3; 10 mM NIC, 5 d, FIG. 6): significantly lower
direct inhibitory effect on PI3K activity in vitro (PI3K [4]): not a direct inhibitor
effect on endocrine function in purified fetal islets (purified fetal islets): no effect
actual level of p85 protein (p85 protein): no change
insulin and glucagon gene transcription and insulin protein biosynthesis [5]: an increase

CO[C@@]12[C@H](COC(N)=O)C3=C(C(=O)C(C)=C(N)C3=O)N1C[C@@H]1N[C@@H]12 [mitomycin C]
basal PI3K activity in fetal islet cells significantly affected (PI3K [1]; mitomycin C-treated cells): neither
insulin protein expression (human fetal ICCs [6]; 2 mg/ml mitomycin C for 5 d, FIG. 4B): does not affect

hepatocyte growth factor/scatter factor [HGF/SF]
cellular PI3K activity after acute stimulation (PI3K [1]; 25 ng/ml HGF/SF, ICCs starved 24 h, antiphosphotyrosine immunoprecipitates, FIG. 5): robustly activated
increase in levels of PIP3 (PIP3; ICCs growing continuously (5 d) with 25 ng/ml HGF/SF, FIG. 6): threefold
insulin and glucagon gene transcription and insulin protein biosynthesis [5]: marked down-regulation

O=c1cc(N2CCOCC2)oc2c(-c3ccccc3)cccc12 [Ly294002, 2-(4-Morpholinyl)-8-phenyl-4 H-1-benzopyran-4-one]
control PI3K activity eliminated, p85 immunoprecipitates (PI3K [1]; FIG. 7): 90%
rise in PIP3 formation stimulated by growth factors (PIP3; 100 nM wortmannin or 10 μM Ly294002, intact labeled islet cells): almost completely inhibited
transcriptional level of glucagon [7]: increased
transcriptional level of insulin [7]: increased
transcriptional level of somatostatin [7]: increased
insulin content per cellular DNA versus untreated control (human fetal ICCs [6]; ICCs cultured 5 d with inhibitor, FIG. 2A): significantly increased
insulin secretion per cellular DNA versus untreated control (human fetal ICCs [6]; ICCs cultured 5 d with inhibitor, glucose plus theophylline, FIG. 2B): significantly increased
[3H]thymidine incorporation into DNA (human fetal ICCs [8]): significantly decreased
increase in the total percentage of endocrine-positive cells versus control ICCs (human fetal ICCs [9]; 10 μM Ly294002, 5 d): 4.4 fold
frequency of cells coexpressing multiple hormones (human fetal ICCs [9]; 10 μM Ly294002, 5 d, FIG. 3): increased
total endocrine cell surface area (human fetal ICCs [9]; 10 μM Ly294002, 5 d, FIG. 3): significantly increased
endocrine surface area for all hormones (insulin; somatostatin and pp; glucagon), percent of total ICC surface area (human fetal ICCs [9]; 10 μM Ly294002, 5 d, FIG. 3, n=3): significantly increased
number of hormone producing cells growing in ICCs (human fetal ICCs [9]; blockade of PI3K activity in culture): significantly increased
stability in culture medium [2]: very stable
cytotoxicity (general statement) [3]: no significant cytotoxicity
